Some results are limits rather than exact numbers.

This assay addresses ALK2 (Homo sapiens (Human), UniProt Q04771). Put plainly: ALK2 inhibition, LanthaScreen Eu Kinase Binding Assay (ThermoFisher Scientific / Life Technologies). To be noted: read-out: Measured Ki (IC50) Value for Compounds: IC50. On the procedure: Biochemical assays to measure the inhibitory effects of the compounds were performed by ThermoFisher Scientific (Life Technologies). ALK2 inhibition was tested using LanthaScreen™ Eu Kinase Binding Assay screening protocol.
Background: Time-resolved FRET reads energy transfer from a long-lived donor to a nearby acceptor.

Chain of ALK2 (Q04771 21-509): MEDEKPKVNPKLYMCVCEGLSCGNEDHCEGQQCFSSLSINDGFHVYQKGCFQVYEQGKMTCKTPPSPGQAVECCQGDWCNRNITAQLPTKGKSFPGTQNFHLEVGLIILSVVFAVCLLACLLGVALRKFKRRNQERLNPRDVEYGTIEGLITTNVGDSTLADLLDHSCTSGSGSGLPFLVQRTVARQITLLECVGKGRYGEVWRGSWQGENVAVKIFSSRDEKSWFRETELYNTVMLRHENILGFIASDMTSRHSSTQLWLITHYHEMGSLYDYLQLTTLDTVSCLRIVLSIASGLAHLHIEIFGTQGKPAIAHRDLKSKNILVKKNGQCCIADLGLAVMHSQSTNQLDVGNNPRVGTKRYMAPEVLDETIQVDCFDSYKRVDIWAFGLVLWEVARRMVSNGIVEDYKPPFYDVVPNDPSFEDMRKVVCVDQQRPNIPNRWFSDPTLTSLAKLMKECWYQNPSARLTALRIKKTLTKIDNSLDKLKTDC

As usually defined, the IC50 is the concentration that inhibits the measured activity by half. With `COc1cc(-n2cnc(Nc3cc(C(=O)N4CCCC4)cc4ccoc34)c2)cc(OC)c1OC` [Compound 412a, pyrrolidin-1-yl(7-((1-(3,4,5-trimethoxyphenyl)-1H-imidazol-4-yl)amino)benzofuran-5-yl)methanone], the IC50 fell in the range of 100 to 1000 nM.

Consider `OC[C@@H]1CCCN1c1nc(Nc2cn(-c3cccc(OC(F)(F)F)c3)cn2)nn2cccc12` [Compound 262d, (S)-(1-(2-((1-(3-(trifluoromethoxy)phenyl)-1H-imidazol-4-yl)amino)pyrrolo[2,1-f][1,2,4]triazin-4-yl)pyrrolidin-2-yl)methanol], for which the IC50 is above 1000 nM.

`Cn1cnc(Nc2nc(N3CCC[C@@H]3CO)nn3cccc23)c1` [Compound 7a, (R)-(1-(4-(1-methyl-1H-imidazol-4-ylamino)pyrrolo[1,2-f][1,2,4]triazin-2-yl)pyrrolidin-2-yl)methanol]: the IC50 was above 1000 nM.

As for `COc1cc(-n2cnc(Nc3nc(N4CCCC4)c4cccnc4n3)c2)cc(OC)c1OC` [Compound 192b, 4-(pyrrolidin-1-yl)-N-(1-(3,4,5-trimethoxyphenyl)-1H-imidazol-4-yl)pyrido[2,3-d]pyrimidin-2-amine], the IC50 is below 100 nM.

Take `Cn1cnc(Nc2nc(N3CCC[C@H]3CO)nc3ccoc23)c1` [Compound 2a, (S)-(1-(4-((1-methyl-1H-imidazol-4-yl)amino)furo[3,2-d]pyrimidin-2-yl)pyrrolidin-2-yl)methanol]: the IC50 lay in the range of 100 to 1000 nM.

As to `COc1cc(-n2cnc(Nc3nc(N4CCC[C@@H]4C(N)=O)nc4ccoc34)c2)cc(OC)c1OC` [Compound 300a, (R)-1-(4-((1-(3,4,5-trimethoxyphenyl)-1H-imidazol-4-yl)amino)furo[3,2-d]pyrimidin-2-yl)pyrrolidine-2-carboxamide], the IC50 was below 100 nM.

Take `COc1cc(-n2cnc(Nc3nc(N4CCC[C@H]4CO)nc4cc(C)ccc34)c2)cc(OC)c1OC` [Compound 391c, (S)-(1-(7-methyl-4-((1-(3,4,5-trimethoxyphenyl)-1H-imidazol-4-yl)amino)quinazolin-2-yl)pyrrolidin-2-yl)methanol]: the IC50 is below 100 nM.

With `Cc1cc(OC(F)(F)F)cc(-n2cnc(Nc3nc(N4CCC[C@H]4CO)nn4cccc34)c2)c1` [Compound 331b, (S)-(1-(4-((1-(3-methyl-5-(trifluoromethoxy)phenyl)-1H-imidazol-4-yl)amino)pyrrolo[2,1-f][1,2,4]triazin-2-yl)pyrrolidin-2-yl)methanol], the IC50 is below 100 nM.

With `COc1cc(-n2cnc(Nc3nc(N4CCC[C@H]4CO)nc4ncccc34)c2)cc(OC)c1OC` [Compound 169c, (S)-(1-(4-((1-(3,4,5-trimethoxyphenyl)-1H-imidazol-4-yl)amino)pyrido[2,3-d]pyrimidin-2-yl)pyrrolidin-2-yl)methanol], the IC50 was below 100 nM.

With `OC[C@@H]1CCCN1c1nc(Nc2cn(-c3ccccc3)cn2)c2scc(Br)c2n1` [Compound 87c, (S)-(1-(7-bromo-4-((1-phenyl-1H-imidazol-4-yl)amino)thieno[3,2-d]pyrimidin-2-yl)pyrrolidin-2-yl)methanol], the IC50 was in the range of 100 to 1000 nM.

Turning to `OC[C@@H]1CCCN1c1nc(Nc2cn(-c3ccccc3)cn2)c2occc2n1` [Compound 14b, (S)-(1-(4-((1-phenyl-1H-imidazol-4-yl)amino)furo[3,2-d]pyrimidin-2-yl)pyrrolidin-2-yl)methanol], the IC50 was below 100 nM.

In the case of `COc1cc(-n2cnc(Nc3nc4c(c(N5CCC[C@H]5CO)n3)CCN(CC(N)=O)C4)c2)cc(OC)c1OC` [Compound 218a, (S)-2-(4-(2-(hydroxymethyl)pyrrolidin-1-yl)-2-((1-(3,4,5-trimethoxyphenyl)-1H-imidazol-4-yl)amino)-5,6-dihydropyrido[3,4-d]pyrimidin-7(8H)-yl)acetamide], the IC50 was below 100 nM.

For `COc1cc(-n2cnc(Nc3cc(N4CCC[C@H]4CO)c4ccccc4n3)c2)cc(OC)c1OC` [Compound 368a, (S)-(1-(2-(1-(3,4,5-trimethoxyphenyl)-1H-imidazol-4-ylamino)quinolin-4-yl)pyrrolidin-2-yl)methanol], the IC50 lay within 100 to 1000 nM.

As to `COc1cc(-n2cnc(Nc3ncnn4cccc34)c2)cc(OC)c1OC` [Compound 187b, N-(1-(3,4,5-trimethoxyphenyl)-1H-imidazol-4-yl)pyrrolo[2,1-f][1,2,4]triazin-4-amine], the IC50 is below 100 nM.

Consider `COc1cc(-n2cnc(Nc3nc(N4CCC[C@H]4CO)nc4c3CCC4)c2)cc(OC)c1OC` [Compound 289b, (S)-(1-(4-((1-(3,4,5-trimethoxyphenyl)-1H-imidazol-4-yl)amino)-6,7-dihydro-5H-cyclopenta[d]pyrimidin-2-yl)pyrrolidin-2-yl)methanol], for which the IC50 is below 100 nM.

On to `COc1cc(-n2cnc(Nc3nc(-c4ccccc4CO)nn4cccc34)c2)cc(OC)c1OC` [Compound 137a, (2-(4-((1-(3,4,5-trimethoxyphenyl)-1H-imidazol-4-yl)amino)pyrrolo[2,1-f][1,2,4]triazin-2-yl)phenyl)methanol], for which the IC50 is below 100 nM.

Regarding `COc1cc(-n2cnc(Nc3nc(N4CCC[C@@H]4C(N)=O)nn4c(CN5CCCCC5)ccc34)c2)cc(OC)c1OC` [Compound 349a, (R)-1-(7-(piperidin-1-ylmethyl)-4-((1-(3,4,5-trimethoxyphenyl)-1H-imidazol-4-yl)amino)pyrrolo[2,1-f][1,2,4]triazin-2-yl)pyrrolidine-2-carboxamide], the concentration for half-maximal inhibition (IC50) is below 100 nM.

On to `COc1cc(-n2cnc(Nc3nc(N4CCC[C@@H]4C(N)=O)nc4cc(F)ccc34)c2)cc(OC)c1OC` [Compound 288a, (R)-1-(7-fluoro-4-((1-(3,4,5-trimethoxyphenyl)-1H-imidazol-4-yl)amino)quinazolin-2-yl)pyrrolidine-2-carboxamide], for which the IC50 was below 100 nM.

Regarding `CC(C)(C)OC(=O)N1CCN(c2nc(Nc3cn(-c4ccccc4)cn3)c3sccc3n2)CC1` [Compound 54a, tert-butyl 4-(4-((1-phenyl-1H-imidazol-4-yl)amino)thieno[3,2-d]pyrimidin-2-yl)piperazine-1-carboxylate], the IC50 is below 100 nM.

For `Cc1cc(OC(F)(F)F)cc(-n2cnc(Nc3nc(N4CCC[C@H]4CO)c4cccn4n3)c2)c1` [Compound 263d, (S)-(1-(2-((1-(3-methyl-5-(trifluoromethoxy)phenyl)-1H-imidazol-4-yl)amino)pyrrolo[2,1-f][1,2,4]triazin-4-yl)pyrrolidin-2-yl)methanol], the concentration for half-maximal inhibition (IC50) was above 1000 nM.

In the case of `OCc1ccc(-n2cnc(Nc3nc(N4CCC[C@H]4CO)nn4cccc34)c2)cc1` [Compound 436e, (S)-(1-(4-((1-(4-(hydroxymethyl)phenyl)-1H-imidazol-4-yl)amino)pyrrolo[2,1-f][1,2,4]triazin-2-yl)pyrrolidin-2-yl)methanol], the IC50 was below 100 nM.

Take `OC[C@@H]1CCCN1c1nc(Nc2cn(C3CC3)cn2)c2cccn2n1` [Compound 26c, (S)-(1-(4-((1-cyclopropyl-1H-imidazol-4-yl)amino)pyrrolo[2,1-f][1,2,4]triazin-2-yl)pyrrolidin-2-yl)methanol]: the IC50 fell in the range of 100 to 1000 nM.

Regarding `COc1cc(-n2cnc(Nc3nc(N4CCC[C@H]4CO)c4ccn(S(=O)(=O)c5ccc(C)cc5)c4n3)c2)cc(OC)c1OC` [Compound 159b, (S)-(1-(7-tosyl-2-((1-(3,4,5-trimethoxyphenyl)-1H-imidazol-4-yl)amino)-7H-pyrrolo[2,3-d]pyrimidin-4-yl)pyrrolidin-2-yl)methanol], the IC50 is above 1000 nM.

On to `CNC(=O)c1cc(C2CC2)cc(-n2cnc(Nc3nc(N4CCC[C@H]4CO)nn4cccc34)c2)c1` [Compound 468g, (S)-3-cyclopropyl-5-(4-((2-(2-(hydroxymethyl)pyrrolidin-1-yl)pyrrolo[2,1-f][1,2,4]triazin-4-yl)amino)-1H-imidazol-1-yl)-N-methylbenzamide], for which the IC50 was above 1000 nM.

In the case of `COc1cc(-n2cnc(Nc3cc(C(=O)N4CCC[C@@H](N)C4)cc4ccoc34)c2)cc(OC)c1OC` [Compound 413b, (R)-(3-aminopiperidin-1-yl)(7-((1-(3,4,5-trimethoxyphenyl)-1H-imidazol-4-yl)amino)benzofuran-5-yl)methanone], the IC50 is 100 to 1000 nM.

Turning to `COc1cc(-n2cnc(Nc3nc(N4CCC[C@@H]4CO)nc4[nH]ccc34)c2)cc(OC)c1OC` [Compound 308b, (R)-(1-(4-((1-(3,4,5-trimethoxyphenyl)-1H-imidazol-4-yl)amino)-7H-pyrrolo[2,3-d]pyrimidin-2-yl)pyrrolidin-2-yl)methanol], the IC50 was below 100 nM.

For `COc1ccc(-n2cnc(Nc3nc(N4CCC[C@H]4CO)nn4cccc34)c2)cc1OC` [Compound 73c, (S)-(1-(4-((1-(3,4-dimethoxyphenyl)-1H-imidazol-4-yl)amino)pyrrolo[2,1-f][1,2,4]triazin-2-yl)pyrrolidin-2-yl)methanol], the IC50 was below 100 nM.

As for `COc1cc(-n2cnc(Nc3nc(N4CCC[C@H]4CO)nc4sc(CN5CCN(C)CC5)cc34)c2)cc(OC)c1OC` [Compound 104b, (S)-(1-(6-((4-methylpiperazin-1-yl)methyl)-4-((1-(3,4,5-trimethoxyphenyl)-1H-imidazol-4-yl)amino)thieno[2,3-d]pyrimidin-2-yl)pyrrolidin-2-yl)methanol], the IC50 is below 100 nM.

As for `COc1cc(-n2cnc(Nc3nc(N4CCC[C@H]4CO)c4cccn4n3)c2)ccc1Cl` [Compound 250d, (S)-(1-(2-((1-(4-chloro-3-methoxyphenyl)-1H-imidazol-4-yl)amino)pyrrolo[2,1-f][1,2,4]triazin-4-yl)pyrrolidin-2-yl)methanol], the IC50 was above 1000 nM.

As to `COc1cc(-n2cnc(Nc3nc(N4CCC[C@H]4CO)c4c(C)nn([C@H]5C[C@H](O)C5)c4n3)c2)cc(OC)c1OC` [Compound 465c, (trans)-3-(4-((S)-2-(hydroxymethyl)pyrrolidin-1-yl)-3-methyl-6-((1-(3,4,5-trimethoxyphenyl)-1H-imidazol-4-yl)amino)-1H-pyrazolo[3,4-d]pyrimidin-1-yl)cyclobutanol], the IC50 was below 100 nM.

The record behind these values is patent publication US11661426B2, “Imidazole-containing inhibitors of ALK2 kinase” (BioCryst Pharmaceuticals, Inc., priority 2017, dated 2023).
